Patent US9676751B2, “2-amino-3-ester-pyridl orexin receptor antagonists” (MERCK SHARP & DOHME CORP., priority 2013, dated 2017)

Key:
human orexin-2 receptor = target: T1, human orexin-2 receptor (Homo sapiens, UniProt O43614); assay: FLIPR Ca2+ Flux Assay, CHO cells expressing the human orexin-2 receptor; assay type: cell-based; conditions: agonist 70 pM Ala-6,12 orexin-A, read-out: hOX2R FLIPR IC50
T1 construct: expressed in transfected cells; host or cells: CHO cells
T1 sequence (O43614 1-444): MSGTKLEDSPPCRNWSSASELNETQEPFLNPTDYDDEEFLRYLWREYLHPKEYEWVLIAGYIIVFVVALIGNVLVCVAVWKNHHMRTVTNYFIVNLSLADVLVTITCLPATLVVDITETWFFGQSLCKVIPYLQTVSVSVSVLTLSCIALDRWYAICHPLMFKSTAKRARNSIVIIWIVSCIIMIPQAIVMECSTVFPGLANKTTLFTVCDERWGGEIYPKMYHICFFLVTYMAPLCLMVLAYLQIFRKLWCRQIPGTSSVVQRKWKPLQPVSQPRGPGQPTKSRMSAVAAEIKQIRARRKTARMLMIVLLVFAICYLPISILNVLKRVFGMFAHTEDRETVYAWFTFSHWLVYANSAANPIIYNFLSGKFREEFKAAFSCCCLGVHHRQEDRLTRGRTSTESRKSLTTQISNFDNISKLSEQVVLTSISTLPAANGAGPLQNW
Procedure: The utility of the compounds in accordance with the present invention as orexin receptor OX1R and/or OX2R antagonists may be readily determined without undue experimentation by methodology well known in the art, including the “FLIPR Ca^2+ Flux Assay” (Okumura et al., Biochem. Biophys. Res. Comm. 280:976-981, 2001). In a typical experiment the OX1 and OX2 receptor antagonistic activity of the compounds of the present invention was determined in accordance with the following experimental method. For intracellular calcium measurements, Chinese hamster ovary (CHO) cells expressing the rat orexin-1 receptor or the human orexin-2 receptor, are grown in Iscove's modified DMEM containing 2 mM L-glutamine, […], 1% hypoxanthine-thymidine supplement, 100 U/ml penicillin, 100 μg/ml streptomycin and 10% heat-inactivated fetal calf serum (FCS). The cells are seeded at 20,000 cells/well into Becton-Dickinson black 384-well clear bottom sterile plates coated with poly-D-lysine. All reagents were from GIBCO-Invitrogen Corp. The seeded plates are incubated overnight at 37° C. and 5% CO2. Ala-6,12 human orexin-A as the agonist is prepared as a 1 mM stock solution in 1% bovine serum albumin (BSA) and diluted in assay buffer (HBSS containing 20 mM HEPES, 0.1% BSA and 2.5 mM probenecid, pH7.4) for use in the assay at a final concentration of 70 pM. Test compounds are prepared as 10 mM stock solution in DMSO, then diluted in 384-well plates, first in DMSO, then assay buffer. On the day of the assay, cells are washed 3 times with 100 μl assay buffer and then incubated for 60 min (37° C., 5% CO2) in 60 μl assay buffer containing 1 μM Fluo-4AM ester, 0.02% pluronic acid, and 1% BSA. The dye loading solution is then aspirated and cells are washed 3 times with 100 μl assay buffer. 30 μl of that same buffer is left in each well. Within the Fluorescent Imaging Plate Reader (FLIPR, Molecular Devices), test compounds are added to the plate in a volume of 25 μl, incubated for 5 min and finally 25 μl of agonist is added. Fluorescence is measured for each well at 1 second intervals for 5 minutes and the height of each fluorescence peak is compared to the height of the fluorescence peak induced by 70 pM Ala-6,12 orexin-A with buffer in place of antagonist. For each antagonist, IC50 value (the concentration of compound needed to inhibit 50% of the agonist response) is determined. Alternatively, compound potency can be assessed by a radioligand binding assay (described in Bergman et. al. Bioorg. Med. Chem. Lett. 2008, 18, 1425-1430) in which the inhibition constant (Ki) is determined in membranes prepared from CHO cells expressing either the OX1 or OX2 receptor. The intrinsic orexin receptor antagonist activity of a compound which may be used in the present invention may be determined by these assays.

hOX1R = target: T2, hOX1R (Homo sapiens, UniProt O43613); assay: FLIPR Ca2+ Flux Assay, CHO cells expressing the orexin-1 receptor; assay type: cell-based; conditions: agonist 70 pM Ala-6,12 orexin-A
T2 construct: expressed in transfected cells; host or cells: CHO cells
T2 sequence (O43613 1-425): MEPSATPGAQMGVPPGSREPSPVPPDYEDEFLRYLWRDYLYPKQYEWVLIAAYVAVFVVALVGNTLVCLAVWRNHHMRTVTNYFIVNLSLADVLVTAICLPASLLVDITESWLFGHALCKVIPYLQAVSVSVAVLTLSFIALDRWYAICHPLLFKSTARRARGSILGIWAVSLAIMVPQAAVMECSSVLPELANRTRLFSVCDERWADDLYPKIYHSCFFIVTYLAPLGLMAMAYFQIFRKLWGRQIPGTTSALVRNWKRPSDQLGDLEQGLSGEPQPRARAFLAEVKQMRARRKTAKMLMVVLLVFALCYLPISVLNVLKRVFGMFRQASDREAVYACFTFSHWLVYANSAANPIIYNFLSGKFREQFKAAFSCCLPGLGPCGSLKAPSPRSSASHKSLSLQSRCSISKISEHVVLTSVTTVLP

| Compound | IC50 (human orexin-2 receptor) [nM] | IC50 (hOX1R) [nM] |
| --- | --- | --- |
| COC(=O)c1c(OC)ccnc1N[C@@H]1CC[C@@H](C)N(C(=O)c2c(F)cccc2-n2nccn2)C1 [Example 6, methyl 2-{[(3R,6R)-1-{[2-fluoro-6-(2H-1,2,3-triazol-2-yl)phenyl]carbonyl}-6-methylpiperidin-3-yl]amino}-4-methoxypyridine-3-carboxylate] | 54 | 154 |
| COC(=O)c1c(OC)ccnc1N[C@@H]1CC[C@@H](C)N(C(=O)c2ccccc2-c2nc(C)no2)C1 [Example 7, methyl 4-methoxy-2-{[(3R,6R)-6-methyl-1-{[2-(3-methyl-1,2,4-oxadiazol-5-yl)phenyl]carbonyl}piperidin-3-yl]amino}pyridine-3-carboxylate] | 74 | 309 |
| COC(=O)c1c(OC)ccnc1N[C@@H]1CC[C@@H](C)N(C(=O)c2c(F)cccc2-c2nc(C)no2)C1 [Example 8, methyl 2-{[(3R,6R)-1-{[2-fluoro-6-(3-methyl-1,2,4-oxadiazol-5-yl)phenyl]carbonyl}-6-methylpiperidin-3-yl]amino}-4-methoxypyridine-3-carboxylate] | 94 | 288 |
| COC(=O)c1c(OC)ccnc1N[C@@H]1CC[C@@H](C)N(C(=O)c2cccc(F)c2-c2noc(C)n2)C1 [Example 9, methyl 2-{[(3R,6R)-1-{[3-fluoro-2-(5-methyl-1,2,4-oxadiazol-3-yl)phenyl]carbonyl}-6-methylpiperidin-3-yl]amino}-4-methoxypyridine-3-carboxylate] | 57 | 236 |
| COC(=O)c1c(OC)ccnc1N[C@@H]1CC[C@@H](C)N(C(=O)c2c(F)cccc2-c2noc(C)n2)C1 [Example 10, methyl 2-{[(3R,6R)-1-{[2-fluoro-6-(5-methyl-1,2,4-oxadiazol-3-yl)phenyl]carbonyl}-6-methylpiperidin-3-yl]amino}-4-methoxypyridine-3-carboxylate] | 88 | 332 |
| COC(=O)c1c(OC)ccnc1N[C@@H]1CC[C@@H](C)N(C(=O)c2cccc(F)c2-c2ncccn2)C1 [Example 12, methyl 2-({(3R,6R)-1-[(3-fluoro-2-pyrimidin-2-ylphenyl)carbonyl]-6-methylpiperidin-3-yl}amino)-4-methoxypyridine-3-carboxylate] | 53 | 196 |
| COC(=O)c1c(OC)ccnc1N[C@@H]1CC[C@@H](C)N(C(=O)c2cc(F)ccc2-c2ncccn2)C1 [Example 14, methyl 2-({(3R,6R)-1-[(5-fluoro-2-pyrimidin-2-ylphenyl)carbonyl]-6-methylpiperidin-3-yl}amino)-4-methoxypyridine-3-carboxylate] | 51 | 83 |
| COC(=O)c1c(OC)ccnc1N[C@@H]1CC[C@@H](C)N(C(=O)c2ccsc2-c2ncccn2)C1 [Example 17, methyl 4-methoxy-2-({(3R,6R)-6-methyl-1-[(2-pyrimidin-2-ylthiophen-3-yl)carbonyl]piperidin-3-yl}amino)pyridine-3-carboxylate] | 58 | 266 |
| COC(=O)c1c(OC)ccnc1N[C@@H]1CC[C@@H](C)N(C(=O)c2ncccc2-c2ncccn2)C1 [Example 18, methyl 4-methoxy-2-({(3R,6R)-6-methyl-1-[(3-pyrimidin-2-ylpyridin-2-yl)carbonyl]piperidin-3-yl}amino)pyridine-3-carboxylate] | 168 | 338 |

The next compounds have a lower IC50 (human orexin-2 receptor) than those just listed; values first:

| IC50 (human orexin-2 receptor) [nM] | IC50 (hOX1R) [nM] | Compound |
| --- | --- | --- |
| 38 | – | COC(=O)c1cccnc1N[C@@H]1CC[C@@H](C)N(C(=O)c2ccccc2-n2nccn2)C1 [Example 1, Methyl 2-{[(3R,6R)-6-methyl-1-{[2-(2H-1,2,3-triazol-2-yl)phenyl]carbonyl}piperidin-3-yl]amino}pyridine-3-carboxylate] |
| 25 | 53 | COC(=O)c1c(OC)ccnc1N[C@@H]1CC[C@@H](C)N(C(=O)c2ccccc2-n2nccn2)C1 [Example 2, Methyl 4-methoxy-2-{[(3R,6R)-6-methyl-1-{[2-(2H-1,2,3-triazol-2-yl)phenyl]carbonyl}-piperidin-3-yl]amino}pyridine-3-carboxylate] |
| 34 | 237 | COC(=O)c1c(OC)ccnc1N[C@@H]1CC[C@@H](C)N(C(=O)c2ccccc2-n2ncnn2)C1 [Example 3, Methyl 4-methoxy-2-{[(3R,6R)-6-methyl-1-{[2-(2H-tetrazol-2-yl)phenyl]carbonyl}piperidin-3-yl]amino}pyridine-3-carboxylate] |
| 45 | 362 | COC(=O)c1c(OC)ccnc1N[C@@H]1CC[C@@H](C)N(C(=O)c2cccc(F)c2-n2nccn2)C1 [Example 4, methyl 2-{[(3R,6R)-1-{[3-fluoro-2-(2H-1,2,3-triazol-2-yl)phenyl]carbonyl}-6-methylpiperidin-3-yl]amino}-4-methoxypyridine-3-carboxylate] |
| 45 | 207 | COC(=O)c1c(OC)ccnc1N[C@@H]1CC[C@@H](C)N(C(=O)c2cc(F)ccc2-n2nccn2)C1 [Example 5, methyl 2-{[(3R,6R)-1-{[5-fluoro-2-(2H-1,2,3-triazol-2-yl)phenyl]carbonyl}-6-methylpiperidin-3-yl]amino}-4-methoxypyridine-3-carboxylate] |
| 41 | 80 | COC(=O)c1c(OC)ccnc1N[C@@H]1CC[C@@H](C)N(C(=O)c2ccccc2-c2ncccn2)C1 [Example 11, Methyl 4-methoxy-2-({(3R,6R)-6-methyl-1-[(2-pyrimidin-2-ylphenyl)carbonyl]piperidin-3-yl}amino)pyridine-3-carboxylate] |
| 44 | 138 | COC(=O)c1c(OC)ccnc1N[C@@H]1CC[C@@H](C)N(C(=O)c2ccc(F)cc2-c2ncccn2)C1 [Example 13, methyl 2-({(3R,6R)-1-[(4-fluoro-2-pyrimidin-2-ylphenyl)carbonyl]-6-methylpiperidin-3-yl}amino)-4-methoxypyridine-3-carboxylate] |
| 38 | 66 | COC(=O)c1c(OC)ccnc1N[C@@H]1CC[C@@H](C)N(C(=O)c2c(F)cccc2-c2ncccn2)C1 [Example 15, methyl 2-({(3R,6R)-1-[(2-fluoro-6-pyrimidin-2-ylphenyl)carbonyl]-6-methylpiperidin-3-yl}amino)-4-methoxypyridine-3-carboxylate] |
| 40 | 402 | COC(=O)c1c(OC)ccnc1N[C@@H]1CC[C@@H](C)N(C(=O)c2sccc2-c2ncccn2)C1 [Example 16, methyl 4-methoxy-2-({(3R,6R)-6-methyl-1-[(3-pyrimidin-2-ylthiophen-2-yl)carbonyl]piperidin-3-yl}amino)pyridine-3-carboxylate] |
